Test results: patent EP1090023B1 (GLAXO GROUP LIMITED, priority 1998, dated 1999)

Tests used:
Type in all cases: cell-based
adenosine 1 = molecular target: T1, adenosine 1 (Homo sapiens, UniProt P30542); test: Agonist activity against adenosine receptor subtypes, CHO cells with cAMP response element/SPAP reporter (forskolin-enhanced cAMP); details: ratio to EC50 of NECA; transfected CHO cells; effect on forskolin-enhanced cAMP via SPAP
T1 sequence (P30542 1-326): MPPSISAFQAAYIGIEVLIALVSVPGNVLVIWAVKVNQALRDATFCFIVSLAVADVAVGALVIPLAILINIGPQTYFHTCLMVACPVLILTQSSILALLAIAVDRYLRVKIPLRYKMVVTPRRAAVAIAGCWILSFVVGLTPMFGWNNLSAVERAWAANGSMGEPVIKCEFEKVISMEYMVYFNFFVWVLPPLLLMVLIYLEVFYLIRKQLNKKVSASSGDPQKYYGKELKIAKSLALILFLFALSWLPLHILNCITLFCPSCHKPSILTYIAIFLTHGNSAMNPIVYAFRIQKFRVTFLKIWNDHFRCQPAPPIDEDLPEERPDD
Description: (§1) Compounds of the invention were tested for in vitro and in vivo biological activity in accordance with the following screens: • (1) Agonist activity against adenosine 2a, adenosine 1 and adenosine 3 receptor subtypes.
(§2) Agonist selectivity of compounds against other human adenosine receptors was determined using Chinese hamster ovary (CHO) cells transfected with the gene for the relevant human adenosine receptor following a method based on that of Castanon and Spevak, 1994 . The CHO cells were also transfected with cyclic AMP response elements promoting the gene for secreted placental alkaline phosphatase (SPAP) (Wood, 1995). The effect of test compounds was determined by their effects on basal levels of cAMP (A2a) or on forskolin-enhanced cAMP (A1 and A3) as reflected by changes in levels of SPAP. EC50 values for compounds were then determined as a ratio to that of the non-selective agonist N-ethyl carboxamide adenosine (NECA).

adenosine 3 = molecular target: T2, adenosine 3 (Homo sapiens, UniProt P0DMS8); test: as above; details: ratio to EC50 of NECA; transfected CHO cells; effect on forskolin-enhanced cAMP via SPAP
T2 sequence (P0DMS8 1-318): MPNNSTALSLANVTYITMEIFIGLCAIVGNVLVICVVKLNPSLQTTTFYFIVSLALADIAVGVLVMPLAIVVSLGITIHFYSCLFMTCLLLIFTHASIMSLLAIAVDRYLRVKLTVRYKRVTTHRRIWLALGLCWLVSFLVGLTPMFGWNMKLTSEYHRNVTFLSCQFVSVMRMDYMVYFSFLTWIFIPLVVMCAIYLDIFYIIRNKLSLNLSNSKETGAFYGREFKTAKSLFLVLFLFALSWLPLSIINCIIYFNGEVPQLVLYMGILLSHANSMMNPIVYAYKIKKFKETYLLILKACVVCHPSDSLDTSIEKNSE
Description: as §1, §2

adenosine 2a = adenosine 2a (Homo sapiens, UniProt P29274); test: Agonist activity against adenosine receptor subtypes, CHO cells with cAMP response element/SPAP reporter (basal cAMP); details: ratio to EC50 of NECA; transfected CHO cells; effect on basal cAMP via SPAP
Description: as §1, §2

Sequence of adenosine 2a (P29274 whole entry): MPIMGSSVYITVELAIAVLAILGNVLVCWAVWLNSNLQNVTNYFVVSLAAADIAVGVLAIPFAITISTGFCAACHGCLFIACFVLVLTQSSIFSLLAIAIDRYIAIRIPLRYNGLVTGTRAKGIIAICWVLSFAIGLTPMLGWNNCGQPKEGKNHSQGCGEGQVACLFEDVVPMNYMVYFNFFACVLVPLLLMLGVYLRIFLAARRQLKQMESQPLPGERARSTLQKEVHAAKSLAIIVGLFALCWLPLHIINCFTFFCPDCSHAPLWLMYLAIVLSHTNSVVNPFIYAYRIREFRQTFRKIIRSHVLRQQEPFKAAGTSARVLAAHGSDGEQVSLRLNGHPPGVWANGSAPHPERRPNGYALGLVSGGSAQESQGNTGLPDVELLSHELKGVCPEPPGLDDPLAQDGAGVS

| Structure (SMILES) | A1 (EC50 values as a ratio of that of NECA) (adenosine 1) | A3 (EC50 values as a ratio of that of NECA) (adenosine 3) | A2a (EC50 values as a ratio of that of NECA) (adenosine 2a) |
| --- | --- | --- | --- |
| CCc1nc([C@H]2O[C@@H](n3cnc4c(NCC(c5ccccc5)c5ccccc5)nc(N[C@H]5CC[C@H](N)CC5)nc43)[C@H](O)[C@@H]2O)no1.O=CO.O=CO (relative stereo) [Example 12, (2R,3R,4S,5R)-2-[2-(trans-4-Amino-cyclohexylamino)-6-(2,2-diphenyl-ethylamino)-purin-9-yl]-5-(5-ethyl-[1,2,4]oxadiazol-3-yl)-tetrahydro-furan-3,4-diol diformate] | >8841 | >194 | 4.77 |
| CCC(CC)Nc1nc(N[C@H]2CC[C@H](N)CC2)nc2c1ncn2[C@@H]1O[C@H](c2nnc(C3CC3)o2)[C@@H](O)[C@H]1O.O=CO.O=CO (relative stereo) [Example 36, (2R,3R,4S,5S)-2-[2-(trans-4-Amino-cyclohexylamino)-6-(1-ethyl-propylamino)-purin-9-yl]-5-(5-cyclopropyl-[1,3,4]oxadiazol-2-yl)-tetrahydro-furan-3,4-diol diformate] | 1105.6 | >173 | 26.3 |
| Cc1nnc([C@H]2O[C@@H](n3cnc4c(NCC(c5ccccc5)c5ccccc5)nc(NCCN5CCCC5)nc43)[C@H](O)[C@@H]2O)[nH]1.O=CO [Example 1, (2R,3R,4S,5R)-2-[6-(2,2-Diphenyl-ethylamino)-2-(2-pyrrolidin-1-yl-ethylamino)-purin-9-yl]-5-(5-methyl-4H-[1,2,4]triazol-3-yl)-tetrahydro-furan-3,4-diol formate] | >8325 | >1088 | 14.6 |
| Cc1nnc([C@H]2O[C@@H](n3cnc4c(NCC(c5ccccc5)c5ccccc5)nc(N[C@H](CO)Cc5ccccc5)nc43)[C@H](O)[C@@H]2O)[nH]1.O=CO [Example 2, (2R,3R,4S,5R)-2-[6-(2,2-Diphenyl-ethylamino)-2-(1S-hydroxymethyl-2-phenyl-ethylamino)-purin-9-yl]-5-(5-methyl-4H-[1,2,4]triazol-3-yl)-tetrahydro-furan-3,4-diol formate] | >=7728 | >1087 | 2.46 |
| Cc1nnc([C@H]2O[C@@H](n3cnc4c(NCC(c5ccccc5)c5ccccc5)nc(NCCc5cn(C)cn5)nc43)[C@H](O)[C@@H]2O)[nH]1.O=CO [Example 3, (2R,3R,4S,5R)-2-{6-(2,2-Diphenyl-ethylamino)-2-[2-(1-methyl-1H-imidazol-4-yl)-ethylamino]-purin-9-yl}-5-(5-methyl-4H-[1,2,4]triazol-3-yl)-tetrahydro-furan-3,4-diol formate] | >9058 | >698 | 3.54 |
| Cc1nnc([C@H]2O[C@@H](n3cnc4c(NCC(c5ccccc5)c5ccccc5)nc(N[C@H]5CC[C@H](N)CC5)nc43)[C@H](O)[C@@H]2O)[nH]1.O=CO [Example 4, (2R,3R,4S,5R)-2-[2-(trans-4-Amino-cyclohexylamino)-6-(2,2-diphenyl-ethylamino)-purin-9-yl]-5-(5-methyl-4H-[1,2,4]triazol-3-yl)-tetrahydro-furan-3,4-diol formate] | 4686 | >1052 | 5.1 |
| CCc1nnc([C@H]2O[C@@H](n3cnc4c(NCC(c5ccccc5)c5ccccc5)nc(N[C@H](CO)Cc5ccccc5)nc43)[C@H](O)[C@@H]2O)[nH]1.O=CO [Example 5, (2R,3R,4S,5R)-2-[6-(2,2-Diphenyl-ethylamino)-2-(1S-hydroxymethyl-2-phenyl-ethylamino)-purin-9-yl]-5-(5-ethyl-4H-[1,2,4]triazol-3-yl)-tetrahydro-furan-3,4-diol formate] | >=5194 | >319 | 1 |
| CCc1nnc([C@H]2O[C@@H](n3cnc4c(NCC(c5ccccc5)c5ccccc5)nc(N[C@H]5CC[C@H](N)CC5)nc43)[C@H](O)[C@@H]2O)[nH]1.O=CO [Example 6, (2R,3R,4S,5R)-2-[2-(trans-4-Amino-cyclohexylamino)-6-(2,2-diphenyl-ethylamino)-purin-9-yl]-5-(5-ethyl-4H-[1,2,4]triazol-3-yl)-tetrahydro-furan-3,4-diol formate] | 6739 | >183 | 12.3 |
| CCc1nnc([C@H]2O[C@@H](n3cnc4c(NCC(c5ccccc5)c5ccccc5)nc(N[C@H](CO)C(C)C)nc43)[C@H](O)[C@@H]2O)[nH]1.O=CO [Example 7, (2R,3R,4S,5R)-2-[6-(2,2-Diphenyl-ethylamino)-2-(1S-hydroxymethyl-2-methyl-propylamino)-purin-9-yl]-5-(5-ethyl-4H-[1,2,4]triazol-3-yl)-tetrahydro-furan-3,4-diol formate] | 5327 | >183 | 2.94 |
| CCc1nnc([C@H]2O[C@@H](n3cnc4c(NCC(c5ccccc5)c5ccccc5)nc(NCCN5CCOCC5)nc43)[C@H](O)[C@@H]2O)[nH]1.O=CO [Example 8, (2R,3R,4S,5R)-2-[6-(2,2-Diphenyl-ethylamino)-2-(2-morpholin-4-yl-ethylamino)-purin-9-yl]-5-(5-ethyl-4H-[1,2,4]triazol-3-yl)-tetrahydro-furan-3,4-diol formate] | >10735 | >183 | 19.4 |
| CCc1nnc([C@H]2O[C@@H](n3cnc4c(NCC(c5ccccc5)c5ccccc5)nc(N[C@@H]5CCNC5)nc43)[C@H](O)[C@@H]2O)[nH]1.O=CO [Example 9, (2R,3R,4S,5R)-2-[6-(2,2-Diphenyl-ethylamino)-2-(pyrrolidin-3R-ylamino)-purin-9-yl]-5-(5-ethyl-4H-[1,2,4]triazol-3-yl)-tetrahydro-furan-3,4-diol formate] | >6032 | >147 | 3.25 |
| CC(C)c1nnc([C@H]2O[C@@H](n3cnc4c(NCC(c5ccccc5)c5ccccc5)nc(N[C@H]5CC[C@H](N)CC5)nc43)[C@H](O)[C@@H]2O)[nH]1.O=CO [Example 10, (2R,3R,4S,5R)-2-[2-(trans-4-Amino-cyclohexylamino)-6-(2,2-diphenyl-ethylamino)-purin-9-yl]-5-(5-isopropyl-4H-[1,2,4]triazol-3-yl)-tetrahydro-furan-3,4-diol formate] | 1453.5 | >326 | 16.85 |
| CC(C)c1nnc([C@H]2O[C@@H](n3cnc4c(NCC(c5ccccc5)c5ccccc5)nc(N[C@H](CO)Cc5ccccc5)nc43)[C@H](O)[C@@H]2O)[nH]1.O=CO [Example 11, (2R,3R,4S,5R)-2-[6-(2,2-Diphenyl-ethylamino)-2-(1S-hydroxymethyl-2-phenyl-ethylamino)-purin-9-yl]-5-(5-isopropyl-4H-[1,2,4]triazol-3-yl)-tetrahydro-furan-3,4-diol formate] | 2202 | >257 | 17.97 |
| CCc1nc([C@H]2O[C@@H](n3cnc4c(NCC(c5ccccc5)c5ccccc5)nc(NCCc5cn(C)cn5)nc43)[C@H](O)[C@@H]2O)no1.O=CO [Example 13, (2R,3R,4S,5R)-2-{6-(2,2-Diphenyl-ethylamino)-2-[2-(1-methyl-1H-imidazol-4-yl)-ethylamino]-purin-9-yl}-5-(5-ethyl-[1,2,4]oxadiazol-3-yl)-tetrahydro-furan-3,4-diol formate] | 6620 | >194 | 1.29 |
